For `Cc1cc(C#N)c(Nc2ccccc2[N+](=O)[O-])s1`, which solubility (mole fraction) (in DMSO, 292.15 K) is on record?
Its solubility (mole fraction) is 0.0519.

What about the solubility (mole fraction) (in DMSO, 297.15 K) of the same compound?
Its solubility (mole fraction) is 0.0588.

And the solubility (mole fraction) (in DMSO, 301.15 K)?
Its solubility (mole fraction) is 0.0671.

What about the solubility (mole fraction) (in DMSO, 306.15 K) of the same compound?
Its solubility (mole fraction) is 0.0734.

What about the solubility (mole fraction) (in DMSO, 310.15 K) of the same compound?
The solubility (mole fraction) was 0.0801.

What about the solubility (mole fraction) (in DMSO, 316.15 K) of the same compound?
The solubility (mole fraction) was 0.0913.

What about the solubility (mole fraction) (in DMSO, 320.15 K) of the same compound?
The solubility (mole fraction) was 0.101.

What about the solubility (mole fraction) (in DMSO, 325.15 K) of the same compound?
Its solubility (mole fraction) is 0.112.

What about the solubility (mole fraction) (in DMSO, 328.15 K) of the same compound?
The solubility (mole fraction) was 0.123.

And the solubility (mole fraction) (in DMSO, 332.15 K)?
The solubility (mole fraction) was 0.135.

And the solubility (mole fraction) (in acetic acid, 293.15 K)?
The solubility (mole fraction) was 0.00487.

And the solubility (mole fraction) (in acetic acid, 297.15 K)?
Its solubility (mole fraction) is 0.00588.

What about the solubility (mole fraction) (in acetic acid, 302.15 K) of the same compound?
Its solubility (mole fraction) is 0.00725.

And the solubility (mole fraction) (in acetic acid, 307.15 K)?
Its solubility (mole fraction) is 0.00881.

And the solubility (mole fraction) (in acetic acid, 311.15 K)?
The solubility (mole fraction) was 0.0109.

What about the solubility (mole fraction) (in acetic acid, 316.15 K) of the same compound?
The solubility (mole fraction) was 0.0127.

And the solubility (mole fraction) (in acetic acid, 320.15 K)?
Its solubility (mole fraction) is 0.0159.

And the solubility (mole fraction) (in acetic acid, 325.15 K)?
The solubility (mole fraction) was 0.0202.

What about the solubility (mole fraction) (in acetic acid, 329.15 K) of the same compound?
Its solubility (mole fraction) is 0.0248.

And the solubility (mole fraction) (in acetic acid, 333.15 K)?
Its solubility (mole fraction) is 0.0306.

And the solubility (mole fraction) (in acetone, 292.15 K)?
The solubility (mole fraction) was 0.0262.

And the solubility (mole fraction) (in acetone, 296.15 K)?
Its solubility (mole fraction) is 0.0322.

What about the solubility (mole fraction) (in acetone, 302.15 K) of the same compound?
The solubility (mole fraction) was 0.0377.

And the solubility (mole fraction) (in acetone, 305.15 K)?
Its solubility (mole fraction) is 0.0444.

What about the solubility (mole fraction) (in acetone, 311.15 K) of the same compound?
The solubility (mole fraction) was 0.0513.

And the solubility (mole fraction) (in acetone, 316.15 K)?
The solubility (mole fraction) was 0.0604.

And the solubility (mole fraction) (in ethanol, 292.15 K)?
The solubility (mole fraction) was 0.00106.

What about the solubility (mole fraction) (in ethanol, 296.15 K) of the same compound?
The solubility (mole fraction) was 0.00131.

And the solubility (mole fraction) (in ethanol, 302.15 K)?
Its solubility (mole fraction) is 0.00163.

And the solubility (mole fraction) (in ethanol, 306.15 K)?
The solubility (mole fraction) was 0.00214.

What about the solubility (mole fraction) (in ethanol, 311.15 K) of the same compound?
The solubility (mole fraction) was 0.00274.

What about the solubility (mole fraction) (in ethanol, 315.15 K) of the same compound?
Its solubility (mole fraction) is 0.00345.

What about the solubility (mole fraction) (in ethanol, 320.15 K) of the same compound?
The solubility (mole fraction) was 0.00427.

And the solubility (mole fraction) (in ethanol, 325.15 K)?
Its solubility (mole fraction) is 0.00528.

And the solubility (mole fraction) (in ethanol, 329.15 K)?
The solubility (mole fraction) was 0.00638.

And the solubility (mole fraction) (in ethanol, 334.15 K)?
Its solubility (mole fraction) is 0.00766.

And the solubility (mole fraction) (in ethyl acetate, 293.15 K)?
The solubility (mole fraction) was 0.0199.

And the solubility (mole fraction) (in ethyl acetate, 296.15 K)?
Its solubility (mole fraction) is 0.0227.

And the solubility (mole fraction) (in ethyl acetate, 302.15 K)?
The solubility (mole fraction) was 0.0255.

And the solubility (mole fraction) (in ethyl acetate, 306.15 K)?
The solubility (mole fraction) was 0.0315.

What about the solubility (mole fraction) (in ethyl acetate, 311.15 K) of the same compound?
Its solubility (mole fraction) is 0.0379.

What about the solubility (mole fraction) (in ethyl acetate, 315.15 K) of the same compound?
Its solubility (mole fraction) is 0.0442.

What about the solubility (mole fraction) (in ethyl acetate, 320.15 K) of the same compound?
The solubility (mole fraction) was 0.0494.

What about the solubility (mole fraction) (in ethyl acetate, 324.15 K) of the same compound?
Its solubility (mole fraction) is 0.0591.

What about the solubility (mole fraction) (in ethyl acetate, 329.15 K) of the same compound?
The solubility (mole fraction) was 0.0713.

What about the solubility (mole fraction) (in ethyl acetate, 333.15 K) of the same compound?
The solubility (mole fraction) was 0.0858.

What about the solubility (mole fraction) (in methanol, 292.15 K) of the same compound?
The solubility (mole fraction) was 0.00109.

What about the solubility (mole fraction) (in methanol, 297.15 K) of the same compound?
The solubility (mole fraction) was 0.00145.

And the solubility (mole fraction) (in methanol, 302.15 K)?
Its solubility (mole fraction) is 0.00186.

And the solubility (mole fraction) (in methanol, 306.15 K)?
The solubility (mole fraction) was 0.00233.

What about the solubility (mole fraction) (in methanol, 311.15 K) of the same compound?
The solubility (mole fraction) was 0.00291.

And the solubility (mole fraction) (in methanol, 315.15 K)?
Its solubility (mole fraction) is 0.00368.

And the solubility (mole fraction) (in methanol, 320.15 K)?
The solubility (mole fraction) was 0.00464.

What about the solubility (mole fraction) (in methanol, 324.15 K) of the same compound?
The solubility (mole fraction) was 0.00575.
